Laboratory results: patent US12384776B2, “Compounds and uses thereof” (Foghorn Therapeutics Inc., priority 2019, dated 2025)

molecular target: Nanoluciferase-BRD9 fusion protein (3×FLAG-NLuc-BRD9) in SYO-1 cells (Homo sapiens (Human), UniProt Q9H8M2); experiment: SYO1 BRD9 NanoLuc degradation assay; assay type: cell-based; settings: SYO-1 cells expressing 3×FLAG-NLuc-BRD9, 6 hours incubation, top dose 1 μM
In short: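 Degradation read as loss of NLuc signal after 6 h compound exposure (1 μM top final, 3-fold steps, 10 points, duplicates) in SYO-1 cells stably carrying 3×FLAG-NLuc-BRD9. Signal normalised between DMSO-treated cells and cells given 1 μM of a known BRD9 degrader.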

Nanoluciferase-BRD9 fusion protein (3×FLAG-NLuc-BRD9) in SYO-1 cells, sequence (Q9H8M2 whole entry, the tested form may be a part): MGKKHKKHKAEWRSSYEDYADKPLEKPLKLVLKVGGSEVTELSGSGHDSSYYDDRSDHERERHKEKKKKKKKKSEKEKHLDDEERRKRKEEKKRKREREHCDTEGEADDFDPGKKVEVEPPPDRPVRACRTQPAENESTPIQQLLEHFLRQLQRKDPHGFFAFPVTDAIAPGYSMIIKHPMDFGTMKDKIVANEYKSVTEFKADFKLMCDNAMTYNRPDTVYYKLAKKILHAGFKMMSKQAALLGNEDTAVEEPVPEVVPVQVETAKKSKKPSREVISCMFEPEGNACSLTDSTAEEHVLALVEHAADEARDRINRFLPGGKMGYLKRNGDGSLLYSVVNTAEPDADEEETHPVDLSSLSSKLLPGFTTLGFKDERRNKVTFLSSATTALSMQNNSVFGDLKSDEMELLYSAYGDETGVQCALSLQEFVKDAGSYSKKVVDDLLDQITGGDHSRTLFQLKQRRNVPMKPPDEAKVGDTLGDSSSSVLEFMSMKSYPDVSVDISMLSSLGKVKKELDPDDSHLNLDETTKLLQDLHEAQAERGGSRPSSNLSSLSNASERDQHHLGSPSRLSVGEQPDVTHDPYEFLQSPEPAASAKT

Structure (SMILES)	IC50 [nM]
COc1cc(-c2cn(C)c(=O)c3c2CCN(C(=O)NCCCN2CCC4(C2)CN(c2ccc5c(c2)C(=O)N(C2CCC(=O)NC2=O)C5=O)C4)C3)cc(OC)c1CN(C)C (stereo not drawn) [Compound D207]	10 to 100
COc1cc(-c2cn(C)c(=O)c3c2CCN(C(=O)NCCCN2CCC4(CCN(c5ccc6c(c5)C(=O)N(C5CCC(=O)NC5=O)C6=O)C4)C2)C3)cc(OC)c1CN(C)C (stereo not drawn) [Compound D208]	10 to 100
COc1cc(-c2cn(C)c(=O)c3c2CCN(C(=O)NCCN2CCC4(CC2)CCN(c2ccc5c(c2)C(=O)N(C2CCC(=O)NC2=O)C5=O)C4)C3)cc(OC)c1CN(C)C (stereo not drawn) [Compound D209]	10 to 100
COc1cc(-c2cn(C)c(=O)c3c2CCN(C(=O)NCCCN2CC4(CCN(c5ccc6c(c5)C(=O)N(C5CCC(=O)NC5=O)C6=O)C4)C2)C3)cc(OC)c1CN(C)C (stereo not drawn) [Compound D210]	10 to 100
COc1cc(-c2cn(C)c(=O)c3c2CCN(C(=O)NCCN2CC4(CCN(c5ccc6c(c5)C(=O)N(C5CCC(=O)NC5=O)C6=O)C4)C2)C3)cc(OC)c1CN(C)C (stereo not drawn) [Compound D211]	100 to 1000
COc1cc(-c2cn(C)c(=O)c3c2CCN(C(=O)NCCN2CCC4(CC2)CN(c2ccc5c(c2)C(=O)N(C2CCC(=O)NC2=O)C5=O)C4)C3)cc(OC)c1CN(C)C (stereo not drawn) [Compound D212]	10 to 100
COc1cc(-c2cn(C)c(=O)c3c2CCN(C(=O)NCC2CC4(CCN(CCOc5ccc6c(c5)C(=O)N(C5CCC(=O)NC5=O)C6=O)CC4)O2)C3)cc(OC)c1CN(C)C (stereo not drawn) [Compound D213]	100 to 1000
COc1cc(-c2cn(C)c(=O)c3c2CCN(C(=O)NC2CCC4(CCN(CCCN5CCN(c6ccc7c(c6)C(=O)N(C6CCC(=O)NC6=O)C7=O)CC5)C4)C2)C3)cc(OC)c1CN(C)C (stereo not drawn) [Compound D214]	100 to 1000
COc1cc(-c2cn(C)c(=O)c3c2CCN(C(=O)NC2CCC4(CCN(CCOc5ccc6c(c5)C(=O)N(C5CCC(=O)NC5=O)C6=O)C4)C2)C3)cc(OC)c1CN(C)C (stereo not drawn) [Compound D215]	100 to 1000
COc1cc(-c2cn(C)c(=O)c3c2CCN(C(=O)NC2CC4(CCN(CCCN5CCN(c6ccc7c(c6)C(=O)N(C6CCC(=O)NC6=O)C7=O)CC5)CC4)C2)C3)cc(OC)c1CN(C)C (stereo not drawn) [Compound D216]	≥ 1000
COc1cc(-c2cn(C)c(=O)c3c2CCN(C(=O)NC2CC4(CCN(CCCCN5CCN(c6ccc7c(c6)C(=O)N(C6CCC(=O)NC6=O)C7=O)CC5)CC4)CO2)C3)cc(OC)c1CN(C)C (stereo not drawn) [Compound D217]	≥ 1000
COc1cc(-c2cn(C)c(=O)c3c2CCN(C(=O)NCC2CC4(CCN(CCCCN5CCN(c6ccc7c(c6)C(=O)N(C6CCC(=O)NC6=O)C7=O)CC5)CC4)C2)C3)cc(OC)c1CN(C)C (stereo not drawn) [Compound D218]	10 to 100
COc1cc(-c2cn(C)c(=O)c3c2CCN(C(=O)NCC2CC4(C2)CN(CCCCN2CCN(c5ccc6c(c5)C(=O)N(C5CCC(=O)NC5=O)C6=O)CC2)C4)C3)cc(OC)c1CN(C)C (stereo not drawn) [Compound D219]	100 to 1000
COc1cc(-c2cn(C)c(=O)c3c2CCN(C(=O)CC2CCC24CCN(CCCCN2CCN(c5ccc6c(c5)C(=O)N(C5CCC(=O)NC5=O)C6=O)CC2)CC4)C3)cc(OC)c1CN(C)C (stereo not drawn) [Compound D220]	100 to 1000
COc1cc(-c2cn(C)c(=O)c3c2CCN(C(=O)NC2CCC4CN(CCCCN5CCN(c6ccc7c(c6)C(=O)N(C6CCC(=O)NC6=O)C7=O)CC5)CC42)C3)cc(OC)c1CN(C)C (stereo not drawn) [Compound D221]	100 to 1000
CNC(=O)N1CCc2c(-c3cc(OC)c(CN4CCC5(CC4)CN(CCCCOc4ccc6c(c4)C(=O)N(C4CCC(=O)NC4=O)C6=O)CCO5)c(OC)c3)cn(C)c(=O)c2C1 (stereo not drawn) [Compound D222]	< 10
COc1cc(-c2cn(C)c(=O)c3c2CCN(C(=O)NCCCN2CCC(OC4CCN(c5ccc6c(c5)C(=O)N(C5CCC(=O)NC5=O)C6=O)CC4)CC2)C3)cc(OC)c1CN(C)C (stereo not drawn) [Compound D223]	10 to 100
COc1cc(-c2cn(C)c(=O)c3c2CCN(C(=O)NC2CC4(CCN(CCOc5ccc6c(c5)C(=O)N(C5CCC(=O)NC5=O)C6=O)CC4)C2)C3)cc(OC)c1CN(C)C (stereo not drawn) [Compound D224]	< 10
COc1cc(-c2cn(C)c(=O)c3c2CCN(C(=O)NCCCN2CCC(OC4CCN(c5ccc6c(c5)C(=O)N(C5CCC(=O)NC5=O)C6=O)CC4)C2)C3)cc(OC)c1CN(C)C (stereo not drawn) [Compound D225]	10 to 100
COc1cc(-c2cn(C)c(=O)c3c2CCN(C(=O)NC2CC4(CCN(CCCCN5CCN(c6ccc7c(c6)C(=O)N(C6CCC(=O)NC6=O)C7=O)CC5)C4)C2)C3)cc(OC)c1CN(C)C (stereo not drawn) [Compound D226]	10 to 100
COc1cc(-c2cn(C)c(=O)c3c2CCN(C(=O)NCCCN2CCC(N4CCN(c5ccc6c(c5)C(=O)N(C5CCC(=O)NC5=O)C6=O)CC4)C2)C3)cc(OC)c1CN(C)C (stereo not drawn) [Compound D227]	< 10
COc1cc(-c2cn(C)c(=O)c3c2CCN(C(=O)NC2CC4(CCN(CCOc5ccc6c(c5)C(=O)N(C5CCC(=O)NC5=O)C6=O)C4)C2)C3)cc(OC)c1CN(C)C (stereo not drawn) [Compound D228]	10 to 100
COc1cc(-c2cn(C)c(=O)c3c2CCN(C(=O)NCCCN2CCC(OCC4CCN(c5ccc6c(c5)C(=O)N(C5CCC(=O)NC5=O)C6=O)CC4)C2)C3)cc(OC)c1CN(C)C (stereo not drawn) [Compound D229]	10 to 100

Structure (SMILES)	IC50 [nM]
COc1cc(-c2cn(C)c(=O)c3c2CCN(C(=O)NC2CC4(C2)CN(CCCCN2CCN(c5ccc6c(c5)C(=O)N(C5CCC(=O)NC5=O)C6=O)CC2)C4)C3)cc(OC)c1CN(C)C (stereo not drawn) [Compound D230]	≥ 1000
COc1cc(-c2cn(C)c(=O)c3c2CCN(C(=O)NCCCN2CCC4C(C2)CN4c2ccc4c(c2)C(=O)N(C2CCC(=O)NC2=O)C4=O)C3)cc(OC)c1CN(C)C (stereo not drawn) [Compound D231]	< 10
COc1cc(-c2cn(C)c(=O)c3c2CCN(C(=O)NCC2CC4CN(CCCCN5CCN(c6ccc7c(c6)C(=O)N(C6CCC(=O)NC6=O)C7=O)CC5)CC4C2)C3)cc(OC)c1CN(C)C (stereo not drawn) [Compound D232]	10 to 100
COc1cc(-c2cn(C)c(=O)c3c2CCN(C(=O)NCC2CC4(CCN(CCCOc5ccc6c(c5)C(=O)N(C5CCC(=O)NC5=O)C6=O)CC4)CO2)C3)cc(OC)c1CN(C)C (stereo not drawn) [Compound D233]	100 to 1000
COc1cc(-c2cn(C)c(=O)c3c2CCN(C(=O)NCCCN2CCC4CCN(c5ccc6c(c5)C(=O)N(C5CCC(=O)NC5=O)C6=O)C4C2)C3)cc(OC)c1CN(C)C (stereo not drawn) [Compound D234]	10 to 100
COc1cc(-c2cn(C)c(=O)c3c2CCN(C(=O)NCC2CC4(CCN(CCCOc5ccc6c(c5)C(=O)N(C5CCC(=O)NC5=O)C6=O)CC4)C2)C3)cc(OC)c1CN(C)C (stereo not drawn) [Compound D235]	100 to 1000
COc1cc(-c2cn(C)c(=O)c3c2CCN(C(=O)NCCCN2CCC4(CC2)CCN(c2ccc5c(c2)C(=O)N(C2CCC(=O)NC2=O)C5=O)C4)C3)cc(OC)c1CN(C)C (stereo not drawn) [Compound D236]	10 to 100
COc1cc(-c2cn(C)c(=O)c3c2CCN(C(=O)NC2CCC24CCN(CCCOc2ccc5c(c2)C(=O)N(C2CCC(=O)NC2=O)C5=O)CC4)C3)cc(OC)c1CN(C)C (stereo not drawn) [Compound D237]	≥ 1000
COc1cc(-c2cn(C)c(=O)c3c2CCN(C(=O)NCCCN2CC4(CCN(c5ccc6c(c5)C(=O)N(C5CCC(=O)NC5=O)C6=O)CC4)C2)C3)cc(OC)c1CN(C)C (stereo not drawn) [Compound D238]	10 to 100
COc1cc(-c2cn(C)c(=O)c3c2CCN(C(=O)NCC2CC24CCN(CCCCN2CCN(c5ccc6c(c5)C(=O)N(C5CCC(=O)NC5=O)C6=O)CC2)CC4)C3)cc(OC)c1CN(C)C (stereo not drawn) [Compound D240]	100 to 1000
COc1cc(-c2cn(C)c(=O)c3c2CCN(C(=O)NCCCN2CC4(CCN4c4ccc5c(c4)C(=O)N(C4CCC(=O)NC4=O)C5=O)C2)C3)cc(OC)c1CN(C)C (stereo not drawn) [Compound D241]	100 to 1000
COc1cc(-c2cn(C)c(=O)c3c2CCN(C(=O)NCC2CC24CCN(CCCOc2ccc5c(c2)C(=O)N(C2CCC(=O)NC2=O)C5=O)CC4)C3)cc(OC)c1CN(C)C (stereo not drawn) [Compound D242]	100 to 1000
COc1cc(-c2cn(C)c(=O)c3c2CCN(C(=O)NC2CC4CC2CN4CCCCN2CCN(c4ccc5c(c4)C(=O)N(C4CCC(=O)NC4=O)C5=O)CC2)C3)cc(OC)c1CN(C)C (stereo not drawn) [Compound D243]	≥ 1000
COc1cc(-c2cn(C)c(=O)c3c2CCN(C(=O)NC2CCC4CN(CCCOc5ccc6c(c5)C(=O)N(C5CCC(=O)NC5=O)C6=O)CC42)C3)cc(OC)c1CN(C)C (stereo not drawn) [Compound D244]	100 to 1000
COc1cc(-c2cn(C)c(=O)c3c2CCN(C(=O)NC2CC4CN(CCCCN5CCN(c6ccc7c(c6)C(=O)N(C6CCC(=O)NC6=O)C7=O)CC5)CC4C2)C3)cc(OC)c1CN(C)C (stereo not drawn) [Compound D245]	100 to 1000
COc1cc(-c2cn(C)c(=O)c3c2CCN(C(=O)NCCCN2CCC4(CC2)CN(c2ccc5c(c2)C(=O)N(C2CCC(=O)NC2=O)C5=O)C4)C3)cc(OC)c1CN(C)C (stereo not drawn) [Compound D246]	< 10
COc1cc(-c2cn(C)c(=O)c3c2CCN(C(=O)NC2C[C@@H]4CN(CCCCN5CCN(c6ccc7c(c6)C(=O)N(C6CCC(=O)NC6=O)C7=O)CC5)C[C@H]24)C3)cc(OC)c1CN(C)C (stereo partly drawn) [Compound D247]	100 to 1000
COc1cc(-c2cn(C)c(=O)c3c2CCN(C(=O)NC2C[C@@H]4CN(CCCOc5ccc6c(c5)C(=O)N(C5CCC(=O)NC5=O)C6=O)C[C@H]24)C3)cc(OC)c1CN(C)C (stereo partly drawn) [Compound D248]	≥ 1000
COc1cc(-c2cn(C)c(=O)c3c2CCN(C(=O)NC2C[C@@H]4CN(CCOc5ccc6c(c5)C(=O)N(C5CCC(=O)NC5=O)C6=O)C[C@H]24)C3)cc(OC)c1CN(C)C (stereo partly drawn) [Compound D249]	≥ 1000
COc1cc(-c2cn(C)c(=O)c3c2CCN(C(=O)NC2CCC4(CCN(CCCOc5ccc6c(c5)C(=O)N(C5CCC(=O)NC5=O)C6=O)C4)C2)C3)cc(OC)c1CN(C)C (stereo not drawn) [Compound D250]	100 to 1000
CNC(=O)N1CCc2c(-c3cc(OC)c(CN4CCC(CCN5CCC6(CC5)CC(Oc5ccc7c(c5)C(=O)N(C5CCC(=O)NC5=O)C7=O)C6)CC4)c(OC)c3)cn(C)c(=O)c2C1 (stereo not drawn) [Compound D251]	< 10
COc1cc(-c2cn(C)c(=O)c3c2CCN(C(=O)NC2CC4(CCN(CCCOc5ccc6c(c5)C(=O)N(C5CCC(=O)NC5=O)C6=O)CC4)C2)C3)cc(OC)c1CN(C)C (stereo not drawn) [Compound D252]	100 to 1000
